Test results from patent US4108724A, “Method for preparing antibiotic P-2563 using Pseudomonas fluorescens” (Takeda Chemical Industries, Ltd., priority 1975, dated 1978).
In brackets after ≈: the same amount, converted by molar mass. Entries after “also recorded” stand apart in the source; their conditions may differ. Structures can show the parent of a compound that is named as a salt.

How the values were obtained:
Solubilities = type: physicochemical; conditions: for Solubilities: insoluble: insoluble solvents; for Solubilities: readily soluble: readily soluble solvents; for Solubilities: sparingly soluble: sparingly soluble solvents
Stability against pH = type: physicochemical; conditions: outside the stable pH range
Bacillus subtilis = experiment: Antimicrobial spectrum, minimal inhibitory concentration (Procedure I); type: cell-based; conditions: Procedure I: heart infusion agar, 37° C, 24 hours
Experimental: (§1) In the table, procedures I to III mean the following:
(§2) Procedure I : Cultivated on heart infusion agar medium (Difco) at 37° C for 24 hours.

Escherichia coli = experiment: as above; type: cell-based; conditions: Procedure I: heart infusion agar, 37° C, 24 hours
Experimental: as §1, §2

Klebsiella pneumoniae = experiment: as above; type: cell-based; conditions: Procedure I: heart infusion agar, 37° C, 24 hours
Experimental: as §1, §2

Proteus mirabilis = experiment: as above; type: cell-based; conditions: Procedure I: heart infusion agar, 37° C, 24 hours
Experimental: as §1, §2

Proteus vulgaris = experiment: as above; type: cell-based; conditions: Procedure I: heart infusion agar, 37° C, 24 hours
Experimental: as §1, §2

Pseudomonas aeruginosa = experiment: as above; type: cell-based; conditions: Procedure I: heart infusion agar, 37° C, 24 hours
Experimental: as §1, §2

Staphylococcus aureus = experiment: as above; type: cell-based; conditions: Procedure I: heart infusion agar, 37° C, 24 hours
Experimental: as §1, §2

Mycobacterium species = experiment: Antimicrobial spectrum, minimal inhibitory concentration (Procedure II); type: cell-based; conditions: Procedure II: heart infusion agar with 1 % added glycerin, 37° C, 48 hours
Experimental: as §1
(§3) Procedure II : Cultivated on heart infusion agar medium with 1 % added glycerin at 37° C for 48 hours.

Asperigillus fumigatus = experiment: Antimicrobial spectrum, minimal inhibitory concentration (Procedure III); type: cell-based; conditions: Procedure III: glucose bouillon agar, 28° C, 96 hours
Experimental: as §1
(§4) Procedure III : Cultivated on glucose bouillon agar medium at 28° C for 96 hours.

Candida albicans = experiment: as above; type: cell-based; conditions: Procedure III: glucose bouillon agar, 28° C, 96 hours
Experimental: as §1, §4

Cryptococcus neoformans = experiment: as above; type: cell-based; conditions: Procedure III: glucose bouillon agar, 28° C, 96 hours
Experimental: as §1, §4

Microsporum gypseum = experiment: as above; type: cell-based; conditions: Nannizzia gypsea; Procedure III: glucose bouillon agar, 28° C, 96 hours
Experimental: as §1, §4

[1] = tested on: Trichophyton mentagrophytes; experiment: as above; type: cell-based; conditions: Procedure III: glucose bouillon agar, 28° C, 96 hours
Experimental: as §1, §4

[2] = Acute toxicity in mice (intravenous); type: in vivo; conditions: for LD50: mouse, in vivo
[3] = tested on: gram-positive and gram-negative bacteria; experiment: Antimicrobial spectrum (general statement); type: cell-based
Experimental: as §2, §3, §4

[4] = tested on: bacteria of the genus Pseudomonas; experiment: Antimicrobial spectrum (general statement); type: cell-based
Experimental: as §2

[5] = Toxicity (general statement)

Row | SMILES | Solubilities: insoluble (Solubilities) | Solubilities: readily soluble (Solubilities) | Solubilities: sparingly soluble (Solubilities) | Stability: decomposition (Stability against pH) | MIC (Bacillus subtilis) | MIC (Escherichia coli) | MIC (Klebsiella pneumoniae) | MIC (Proteus mirabilis) | MIC (Proteus vulgaris) | MIC (Pseudomonas aeruginosa) | MIC (Staphylococcus aureus) | MIC (Mycobacterium species) | MIC (Asperigillus fumigatus) | MIC (Candida albicans) | MIC (Cryptococcus neoformans) | MIC (Microsporum gypseum) | MIC [1] | solubility in water (general statement) (Solubilities) | antimicrobial spectrum [3] | toxicity [5] | also measured
1 | CCC(=O)N[C@H]1[C@H](O)[C@@H](O)C(OC(C(O)CN)C(N)C(O)CO)O[C@@H]1CO (stereo partly drawn) [P-2563 (I) monohydrochloric acid salt] | insoluble in chloroform, ethyl acetate, ether, n-hexane and petroleum ether | Readily soluble in water and methanol | sparingly soluble in ethanol, n-propanol, butanol and acetone | decomposes gradually with a loss of activity under strongly basic (above pH 8) and strongly acidic (below pH 3) conditions |  |  |  |  |  |  |  |  |  |  |  |  |  |  |  |  | 
2 | CCC(=O)N[C@H]1[C@H](O)[C@@H](O)C(OC(C(O)CN)C(N)C(O)CO)O[C@@H]1CO (stereo partly drawn) [P-2563 (I)] | insoluble in chloroform, ethyl acetate, ether, n-hexane and petroleum ether | Readily soluble in water, methanol and ethanol | sparingly soluble in n-propanol, butanol and acetone | decomposes gradually with a loss of activity under strongly basic (above pH 8) and strongly acidic (below pH 3) conditions | 30 µg/mL (≈ 75.5 µM) | 30 µg/mL (≈ 75.5 µM) | 12.5 µg/mL (≈ 31.5 µM) | 200 µg/mL (≈ 503 µM) | 30 µg/mL (≈ 75.5 µM) | 50 µg/mL (≈ 126 µM) | 50 µg/mL (≈ 126 µM) | 200 µg/mL (≈ 503 µM) | > 500 µg/mL | > 500 µg/mL | > 500 µg/mL | > 500 µg/mL | > 500 µg/mL | water-soluble | broad antimicrobial spectrum, especially against gram-positive and gram-neg ative bacteria; also recorded: inhibitory to gram-positive and gram-negative bacteria | low toxicity | toxicity [2]: extremely low in toxicity; LD50 [2]: > 400 mg/kg; inhibitory to bacteria of the genus Pseudomonas [4]: particularly to bacteria of the genus Pseudomonas
3 | CC(=O)N[C@H]1[C@H](O)[C@@H](O)C(OC(C(O)CN)C(N)C(O)CO)O[C@@H]1CO (stereo partly drawn) [P-2563 (II)] | insoluble in chloroform, ethyl acetate, ether, n-hexane and petroleum ether | Readily soluble in water and methanol | sparingly soluble in ethanol, n-propanol, butanol and acetone | decmposes gradually with a loss of activity under strongly basic (above pH 8) and strongly acidic (below pH 3) conditions | 70 µg/mL (≈ 183 µM) | 50 µg/mL (≈ 130 µM) | 50 µg/mL (≈ 130 µM) | 200 µg/mL (≈ 522 µM) | 100 µg/mL (≈ 261 µM) | 300 µg/mL (≈ 782 µM) | 200 µg/mL (≈ 522 µM) | 200 µg/mL (≈ 522 µM) | > 500 µg/mL | > 500 µg/mL | > 500 µg/mL | > 500 µg/mL | > 500 µg/mL | water-soluble | broad antimicrobial spectrum, especially against gram-positive and gram-neg ative bacteria; also recorded: inhibitory to gram-positive and gram-negative bacteria | low toxicity | toxicity [2]: extremely low in toxicity; LD50 [2]: > 400 mg/kg; inhibitory to bacteria of the genus Pseudomonas [4]: particularly to bacteria of the genus Pseudomonas
4 | NCC(O)C(OC1O[C@H](CO)[C@@H](N)[C@H](O)[C@H]1O)C(N)C(O)CO (stereo partly drawn) [P-2563 (III)] | insoluble in chloroform, ethylacetate, ether, n-hexane and petroleum ether | Readily soluble in water and methanol | sparingly soluble in ethanol, n-propanol, butanol and acetone | decomposes gradually under strongly acidic (below pH 3) and strongly basic (above pH 13) conditions |  |  |  |  |  |  |  |  |  |  |  |  |  | water-soluble | broad antimicrobial spectrum, especially against gram-positive and gram-neg ative bacteria | low toxicity | 
